Measurements as given in patent US20090105278A1, “Selective inhibitors of human corticosteroid syntheses” (Universitat Des Saarlandes, priority 2004, published 2009).
Like-named read-outs stand apart in the source and are kept apart here.

Experiments:
bovine adrenal CYP11B = target: T1, bovine adrenal CYP11B (Bos taurus, UniProt P15150); assay: Percent inhibition of bovine CYP11B (adrenal mitochondria); conditions: corticosterone substrate 200 μM, inhibitor 1 μM; for inhibition at 1 µM: read-out: % Inhibition bovine bCYP11B, bovine adrenal mitochondria, 1 mg/ml protein; for % Inhibition bovine bCYP11B: bovine adrenal mitochondria, 1 mg/ml protein
T1 sequence (P15150 25-503): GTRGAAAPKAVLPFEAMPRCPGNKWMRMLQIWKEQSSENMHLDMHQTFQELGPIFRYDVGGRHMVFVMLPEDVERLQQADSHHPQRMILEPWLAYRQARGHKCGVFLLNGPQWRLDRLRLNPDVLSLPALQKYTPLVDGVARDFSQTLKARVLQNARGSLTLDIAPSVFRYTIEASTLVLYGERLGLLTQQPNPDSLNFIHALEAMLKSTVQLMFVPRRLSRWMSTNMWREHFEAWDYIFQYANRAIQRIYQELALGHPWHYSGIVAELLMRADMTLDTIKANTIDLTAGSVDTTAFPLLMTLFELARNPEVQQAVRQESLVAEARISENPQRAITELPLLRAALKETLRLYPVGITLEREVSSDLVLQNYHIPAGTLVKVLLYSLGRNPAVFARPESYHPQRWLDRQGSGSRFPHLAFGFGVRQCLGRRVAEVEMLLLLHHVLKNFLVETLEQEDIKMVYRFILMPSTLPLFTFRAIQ
Description: Bovine adrenal glands obtained freshly after slaughtering were stored in ice cold Tris-sucrose buffer (0.25 M sucrose, 0.05 M Tris; pH 7.4) until processed. After removing the appending adipose tissue, the adrenal medulla was carefully separated from the adrenal cortex using scissors. The pieces of adrenal cortex were coarsely comminuted with scissors, washed with Tris-sucrose buffer, weighed and finely comminuted in the above buffer (2 ml per g of tissue) with a hand mixer. Thereafter, the tissue was homogenized with an Ultra-Turrax mixer. For separating coarse cell debris and the nuclei, the homogenizate was centrifuged twice for 15 min at 900 g and 4° C. The supernatant was subsequently centrifuged for 35 min at 11,000 g for recovering the mitochondrial fraction. For purifying the mitochondrial fraction, the precipitate was resuspended in Tri-sucrose buffer and again centrifuged at 11,000 g for 35 min. This washing step was performed two times in total. After the last centrifugation, the pellet was resuspended in Tris-sucrose buffer containing 0.001 M EDTA and frozen at −70° C.
The substrate corticosterone was dissolved in methanol and diluted with Tris buffer to a final concentration of 200 μM. The inhibitors were also dissolved in methanol and diluted with buffer to a final concentration of 1 μM. […] Corticosterone (200 μM) was incubated with inhibitor (1 μM) and mitochondrial enzyme (0.5 mg/0.5 ml) with the addition of a regenerating system consisting of NADP^+ (1 mM), glucose-6-phosphate (7 mM) and glucose-6-Phosphate dehydrogenase (1 IU/0.5 ml). Up to 5 inhibitors per test could be incubated in duplicate. […] After preincubation for 5 minutes (30° C.; water bath), the reaction was started by adding mitochondrial suspension. […] The blind values were admixed with 250 μl of HCl before the enzyme was pipetted in. The steroids were separated off by shaking with 1 ml of ethyl acetate (10 min). After centrifugation (15,000 g, 10 min), 900 μl of the organic phase was shaken with 250 μl 1 N NaOH (10 min), and 800 μl of supernatant was again washed with 250 μl of buffer. […] 18-OH-corticosterone (retention time: 10 min) and corticosterone (retention time: 21 min) were separated. The height of the 18-OH-corticosterone peak was used for evaluation. The percent inhibition of the 18-hydroxylation of corticosterone by the inhibitors was based on the mediums of the control incubation, taking the blind values into account.

human CYP11B2 = target: T2, human CYP11B2 (Homo sapiens, UniProt P19099); assay: Screening test in transgenic fission yeast (S. pombe PE1) expressing human CYP11B2; format: cell-based; set-up: expressed in transfected cells; conditions: S. pombe cells which express human CYP11B2, deoxycorticosterone substrate 100 nM, inhibitor 500 nM; for inhibition at 0.5 µM: read-out: % Inhibition human hCYP11B2
T2 sequence (P19099 25-503): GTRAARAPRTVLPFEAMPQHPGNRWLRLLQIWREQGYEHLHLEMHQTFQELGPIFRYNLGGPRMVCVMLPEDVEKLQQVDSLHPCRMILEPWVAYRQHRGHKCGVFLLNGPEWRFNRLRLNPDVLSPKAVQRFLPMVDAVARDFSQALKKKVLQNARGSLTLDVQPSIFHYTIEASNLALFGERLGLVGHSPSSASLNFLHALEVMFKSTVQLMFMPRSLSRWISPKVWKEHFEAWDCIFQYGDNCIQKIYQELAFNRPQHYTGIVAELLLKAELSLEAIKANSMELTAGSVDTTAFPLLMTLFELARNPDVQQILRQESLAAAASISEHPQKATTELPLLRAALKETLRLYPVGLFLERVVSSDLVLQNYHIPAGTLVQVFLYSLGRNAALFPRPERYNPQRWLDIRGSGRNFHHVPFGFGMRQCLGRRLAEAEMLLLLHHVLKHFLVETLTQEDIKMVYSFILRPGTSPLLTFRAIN
Description: 492.5 μl of this cell suspension was admixed with 5 μl of inhibitor solution (50 μM of the compound to be tested in ethanol or DMSO) and incubated at 32° C. for 15 min. Controls were admixed with 5 μl of ethanol. […] The test was quenched by extracting the sample with 500 μl of EtOAc. After centrifugation (10,000 g, 2 min), the EtOAc phase was removed and evaporated to dryness. […] The reaction of the substrate to form corticosterone was analyzed by HPTLC (see below).
The quantification of the spots for the substrate deoxycorticosterone and the products corticosterone (and, if detectable, 18-hydroxycorticosterone and aldosterone) was effected with the related evaluation program AIDA. […] The calculation of the conversion rate was effected according to equation 1.
The plate was developed twice with the mobile solvent chloroform:methanol:water (300:20:1). Unlabeled 11-deoxycorticosterone and corticosterone were applied as a reference for the CYP11B1 reaction. For the CYP11B2 reaction, 11-deoxycorticosterone, corticosterone, 18-hydroxycorticosterone and aldosterone were used as references. The detection of the unlabeled references was effected at 260 nm. Subsequently, imaging plates (BAS MS2340, for ^14C samples, Raytest, Straubenhardt, Germany) were exposed to the HPTLC plates for 48 h. The imaging plates were scanned with the phosphoimager system Fuji FLA 3000 (Raytest, Straubenhardt, Germany), and the steroids were quantified.

human CYP17 = target: T3, human CYP17 (Homo sapiens, UniProt P05093); assay: Percent inhibition of CYP17 (membrane fraction of E. coli pJL17/OR); format: biochemical; conditions: for inhibition at 2.5 µM: read-out: % Inhibition human CYP17
T3 construct: made in house; host or cells: E. coli pJL17/OR (membrane fraction)
T3 sequence (P05093 1-508): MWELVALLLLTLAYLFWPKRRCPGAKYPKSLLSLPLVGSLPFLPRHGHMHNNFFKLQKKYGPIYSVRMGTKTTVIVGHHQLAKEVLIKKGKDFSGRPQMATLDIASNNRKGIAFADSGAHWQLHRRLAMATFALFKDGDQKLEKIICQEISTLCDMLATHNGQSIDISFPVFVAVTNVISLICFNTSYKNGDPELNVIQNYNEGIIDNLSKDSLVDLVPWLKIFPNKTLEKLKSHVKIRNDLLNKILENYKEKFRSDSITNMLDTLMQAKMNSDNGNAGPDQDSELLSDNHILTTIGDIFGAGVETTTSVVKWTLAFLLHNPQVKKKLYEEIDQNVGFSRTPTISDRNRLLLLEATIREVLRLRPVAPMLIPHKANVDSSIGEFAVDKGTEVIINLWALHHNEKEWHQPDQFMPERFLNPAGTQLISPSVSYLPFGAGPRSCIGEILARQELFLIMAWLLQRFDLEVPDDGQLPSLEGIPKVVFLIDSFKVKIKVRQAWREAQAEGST
Description: The recombinantly altered E. coli strain pJL17/OR, in which human CYP17 and rat NADPH-P450-reductase were coexpressed, was grown and stored according to the method of Ehmer et al. (Ehmer, P. B. et al., J. Steroid Biochem. Mol. Biol. 75: 57-63 (2000)). For isolating the membrane fraction, 5 ml of the bacterial cell suspension with an OD578 of 50 was washed with phosphate buffer (0.05 M; pH 7.4; 1 mM MgCl2; 0.1 mM EDTA and 0.1 mM DTT). The bacteria were removed by centrifugation and resuspended in 10 ml of ice cold TES buffer (0.1 M tris-acetate; pH 7.8; 0.5 mM EDTA; 0.5 M sucrose). Four milligrams of lysozyme in 10 ml of ice cold water was added to obtain a final concentration of 0.2 mg/ml. This was followed by incubation for 30 minutes under continued shaking on ice. The spheroblasts were obtained by a renewed centrifugation step at 12,000 g for 10 min and again resuspended in 3 ml of ice cold phosphate buffer (composition see above, additionally 0.5 mM PMSF).
After freezing and thawing, the cells were lysed on ice with an ultrasonic disintegrator. The whole cells and the cell debris were centrifuged off at 3000 g for 7 min. The supernatant was again centrifuged at 50,000 g for 20 min at 4° C. A membrane pellet sedimented and was resuspended in 2 ml of phosphate buffer (composition see above) with […] by means of an Ultra-Turrax mixer. […] Aliquots with an approximate protein concentration of 5 mg/ml were stored at −70° C. until use.
Control incubations were performed in parallel with 5 μl DMSO without urea. The reaction was started by adding 50 μl of a membrane suspension diluted 1 to 5 in phosphate buffer (0.8 to 1 mg of protein per ml). After thoroughly mixing the components, the mixture was incubated at 37° C. for 30 min.
The steroids were extracted with 1 ml of EtOAc. […] After the centrifugation, 800 μl of the organic phase was removed, placed into a new vessel and evaporated to dryness. The samples were dissolved in 50 μl of a water-methanol mixture (1:1) and analyzed by HPLC. The substrate conversion was calculated from the ratio of the areas of the product peaks (17α-hydroxyprogesterone and 16α-hydroxyprogesterone) to that of the substrate peak. The activity of the inhibitors was calculated from the reduced substrate conversion after the addition of inhibitors in accordance with the following formula: […]

CYP11B1 in NCI-H295R = target: T4, CYP11B1 in NCI-H295R (Homo sapiens, UniProt P15538); assay: cell-based; conditions: read-out: NCI-H295R CYP11B1 RSS % inhibition
T4 sequence (P15538 25-503): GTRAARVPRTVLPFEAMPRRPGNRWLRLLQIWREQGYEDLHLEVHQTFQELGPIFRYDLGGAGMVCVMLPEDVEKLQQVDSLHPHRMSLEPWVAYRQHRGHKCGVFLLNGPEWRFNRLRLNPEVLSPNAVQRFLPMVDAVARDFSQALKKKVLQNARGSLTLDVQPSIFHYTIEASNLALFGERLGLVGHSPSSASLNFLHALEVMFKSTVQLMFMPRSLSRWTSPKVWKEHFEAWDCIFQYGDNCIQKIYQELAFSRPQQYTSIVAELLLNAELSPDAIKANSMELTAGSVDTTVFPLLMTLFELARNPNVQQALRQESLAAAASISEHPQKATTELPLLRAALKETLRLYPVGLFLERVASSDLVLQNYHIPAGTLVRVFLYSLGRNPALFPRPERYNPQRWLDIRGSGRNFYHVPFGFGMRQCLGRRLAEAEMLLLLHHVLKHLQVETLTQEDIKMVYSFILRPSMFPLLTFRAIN
Description: For testing inhibitors, a preincubation for one hour was performed first, followed by starting the enzyme reactions by adding substrate (500 nM).
A) Seeding: The cell lines were grown and passaged until a confluent cell lawn had formed. By tryptic treatment, the cell material of at least two culture dishes was obtained, and the number of cells determined by means of a CASY TT cell counter (150 μl capillary). […] With the cell material of two confluently grown culture dishes, two 24-well plates could be coated. After 24 hours, the cells had grown on, and after another 24 hours' stimulation phase with a solution containing potassium ions (final concentration: 20 mM KCl), could be employed for the test.
Of this solution, 5 μl each was added to the samples.
Then, the 24-well plate was stored in a CO2 incubator at 37° C. and […]. The incubation time was 3 hours when deoxycorticosterone was used as the substrate, 24 Hours for corticosterone, and 48 hours for deoxycortisol.
Test stop: After elapse of the incubation times, the plates were briefly swung, and then the content of the wells was removed quantitatively if possible and inactivated by mixing with 1000 μl of dichloromethane in a 2 ml Eppendorf vessel. After 10 minutes of shaking, it was centrifuged for phase separation, and the […], organic phase was transferred into a 1.5 ml Eppendorf vessel. […]

ACTH-stimulated rats = conditions: Hausler et al. 1989; cited from earlier work
[1] = E. coli which expresses human CYP17, 5 mg/ml protein, progesterone substrate 2.5 μM, inhibitor 2.5 μM

| Molecule | inhibition at 1 µM (bovine adrenal CYP11B) [%] | inhibition at 0.5 µM (human CYP11B2) [%] | inhibition at 2.5 µM (human CYP17; [1]) [%] | melting point [°C] | % Inhibition bovine bCYP11B (bovine adrenal CYP11B; oxalate) [%] | % Inhibition bovine bCYP11B (bovine adrenal CYP11B) [%] | % Inhibition human hCYP11B2 (human CYP11B2) [%] | % Inhibition human CYP17 (human CYP17; [1]) [%] | inhibition at 2.5 µM (CYP11B1 in NCI-H295R) [%] | Aldosterone and corticosterone levels (ACTH-stimulated rats) | inhibition at 2.5 µM (human CYP17) [%] |
| --- | --- | --- | --- | --- | --- | --- | --- | --- | --- | --- | --- |
| Fc1ccc2c(c1)CC/C2=C\c1cnc[nH]1 [Compound 47a, 5-[(E)-(5-Fluoro-2,3-dihydro-1H-indene-1-ylidenemethyl]-1H-imidazolium chloride] | 67 | 59 | 16 | – | – | – | – | – | – | – | – |
| N#Cc1ccc2c(c1)CCC/C2=C/c1cnc[nH]1.O=C(O)C(=O)O [Compound 44b, (5Z)-5-(1H-Imidazole-5-ylmethylene)-5,6,7,8-tetrahydronaphthalene-2-carbonitrile oxalate] | ~90 | 54 | 4 | 206 | 97 | – | – | – | – | – | – |
| 5-[(Z)-(5-Fluoro-2,3-dihydro-1H-indene-1-ylidene)methyl]-1H-imidazolium oxalate [Compound 47b] | – | – | – | – | – | 64 | 58 | 11 | – | – | – |
| N#Cc1ccc(C2CCCc3cncn32)cc1 (stereo not drawn) [Fadrozole, 4-(5,6,7,8-tetrahydroimidazo[1,5-a]pyridine-5-yl)benzonitrile, reference compound] | – | – | – | – | – | – | – | – | 92 | lowers the aldosterone and corticosterone levels | 7 |
| N#Cc1ccc2c(c1)CC/C2=C/c1cnc[nH]1.O=C(O)C(=O)O [Compound 45b, (1Z)-1-(1H-Imidazole-5-ylmethylene)indane-5-carbonitrile oxalate] | ~90 | 65 | 4 | 207 | 100 | – | – | – | – | – | – |
| N#Cc1ccc2c(c1)CC/C2=C\c1cnc[nH]1.O=C(O)C(=O)O [Compound 45a, (1E)-1-(1H-Imidazole-5-ylmethylene)indane-5-carbonitrile oxalate] | ~90 | 49 | 21 | 217 | 81 | – | – | – | – | – | – |
